Test system: MV-4-11 cells
Experiment: Gene expression microarray analysis (Affymetrix PrimeView) and GSEA
Assay type: cell-based, human
Parameters: RFU PODN (11730768_x_at) / Fold change /veh PODN (11730768_x_at) / RFU LINC00158 (11744669_a_at) / Fold change /veh LINC00158 (11744669_a_at) / RFU DUSP10 (11751237_a_at) / Fold change /veh DUSP10 (11751237_a_at) / RFU ID3 (11757404_x_at) / Fold change /veh ID3 (11757404_x_at) / RFU PLEKHG5 (11737974_s_at) / Fold change /veh PLEKHG5 (11737974_s_at) / RFU LRRC4B (11730491_at) / Fold change /veh LRRC4B (11730491_at) / RFU GIMAP4 (11747438_a_at) / Fold change /veh GIMAP4 (11747438_a_at) / RFU KRT8 (11758183_x_at) / Fold change /veh KRT8 (11758183_x_at) / RFU CNN1 (11734310_a_at) / Fold change /veh CNN1 (11734310_a_at) / RFU VPS37D (11726825_at) / Fold change /veh VPS37D (11726825_at) / RFU C10orf10 (11716522_x_at) / Fold change /veh C10orf10 (11716522_x_at) / RFU KIR2DL2 /// KIR2DL4 /// KIR2DL5A /// KIR2DL5B /// KIR2DS1 /// KIR2DS2 /// KIR2DS3 /// KIR2DS4 /// KIR3DL3 /// KIR3DL3 /// KIR3DS1 (11738374_at) / Fold change /veh KIR2DL2 /// KIR2DL4 /// KIR2DL5A /// KIR2DL5B /// KIR2DS1 /// KIR2DS2 /// KIR2DS3 /// KIR2DS4 /// KIR3DL3 /// KIR3DL3 /// KIR3DS1 (11738374_at) / RFU C1QL1 (11718748_at) / Fold change /veh C1QL1 (11718748_at) / RFU TMPRSS4 (11747572_a_at) / Fold change /veh TMPRSS4 (11747572_a_at) / RFU HAMP (11756126_x_at) / Fold change /veh HAMP (11756126_x_at) / RFU RNFT2 (11725882_a_at) / Fold change /veh RNFT2 (11725882_a_at) / RFU NR4A2 (11747474_a_at) / Fold change /veh NR4A2 (11747474_a_at) / RFU ABCC12 (11746883_a_at) / Fold change /veh ABCC12 (11746883_a_at) / RFU TMEM136 (11760407_x_at) / Fold change /veh TMEM136 (11760407_x_at) / RFU CLDN22 /// WWC2 (11732394_at) / Fold change /veh CLDN22 /// WWC2 (11732394_at) / RFU HLA-DPB1 (11760878_x_at) / Fold change /veh HLA-DPB1 (11760878_x_at) / RFU SPINT1 (11716480_a_at) / Fold change /veh SPINT1 (11716480_a_at) / RFU GAP43 (11754022_s_at) / Fold change /veh GAP43 (11754022_s_at) / RFU A4GNT (11735810_at) / Fold change /veh A4GNT (11735810_at) / RFU PRB3 (11715151_x_at) / Fold change /veh PRB3 (11715151_x_at) / RFU TUBB4B (11761932_at) / Fold change /veh TUBB4B (11761932_at) / RFU CAPN14 (11732068_a_at) / Fold change /veh CAPN14 (11732068_a_at) / RFU TMCC2 (11721928_a_at) / Fold change /veh TMCC2 (11721928_a_at) / RFU IRGQ (11745062_a_at) / Fold change /veh IRGQ (11745062_a_at) / RFU FAM174B (11720279_a_at) / Fold change /veh FAM174B (11720279_a_at) / RFU TMPRSS4 (11748680_a_at) / Fold change /veh TMPRSS4 (11748680_a_at) / RFU FAM212B (11763350_a_at) / Fold change /veh FAM212B (11763350_a_at) / RFU PLEKHG5 (11743358_a_at) / Fold change /veh PLEKHG5 (11743358_a_at) / RFU ZSCAN30 (11745921_a_at) / Fold change /veh ZSCAN30 (11745921_a_at) / RFU CMKLR1 (11741424_a_at) / Fold change /veh CMKLR1 (11741424_a_at) / RFU LOC101060620 /// MAPK8IP1 (11723275_at) / Fold change /veh LOC101060620 /// MAPK8IP1 (11723275_at) / RFU SPTSSB (11747773_x_at) / Fold change /veh SPTSSB (11747773_x_at) / RFU PRSS12 (11739890_at) / Fold change /veh PRSS12 (11739890_at) / RFU BIN1 (11741810_x_at) / Fold change /veh BIN1 (11741810_x_at) / RFU WNT11 (11732464_a_at) / Fold change /veh WNT11 (11732464_a_at) / RFU C10orf10 (11716521_a_at) / Fold change /veh C10orf10 (11716521_a_at) / RFU C5orf56 (11738089_at) / Fold change /veh C5orf56 (11738089_at) / RFU CYB561 (11721691_x_at) / Fold change /veh CYB561 (11721691_x_at) / RFU ANKRD19P (11752326_a_at) / Fold change /veh ANKRD19P (11752326_a_at) / RFU OR2T12 /// OR2T33 /// OR2T8 (11738714_s_at) / Fold change /veh OR2T12 /// OR2T33 /// OR2T8 (11738714_s_at) / RFU VCAN (11748164_a_at) / Fold change /veh VCAN (11748164_a_at) / RFU JSRP1 (11732532_at) / Fold change /veh JSRP1 (11732532_at) / RFU KRTAP10-11 (11738290_x_at) / Fold change /veh KRTAP10-11 (11738290_x_at) / RFU MYO3A (11730013_a_at) / Fold change /veh MYO3A (11730013_a_at) / RFU EBF3 (11725865_a_at) / Fold change /veh EBF3 (11725865_a_at) / RFU CAMK2N1 (11719241_x_at) / Fold change /veh CAMK2N1 (11719241_x_at) / RFU C5orf56 (11738088_a_at) / Fold change /veh C5orf56 (11738088_a_at) / RFU OLFML3 (11715873_a_at) / Fold change /veh OLFML3 (11715873_a_at) / RFU LOC100653217 /// NTM (11731650_a_at) / Fold change /veh LOC100653217 /// NTM (11731650_a_at) / RFU MAPK11 (11762145_a_at) / Fold change /veh MAPK11 (11762145_a_at) / RFU FIZ1 (11724087_x_at) / Fold change /veh FIZ1 (11724087_x_at) / RFU OASL (11726364_x_at) / Fold change /veh OASL (11726364_x_at) / RFU SOX15 (11748057_x_at) / Fold change /veh SOX15 (11748057_x_at) / RFU CD79A (11719716_a_at) / Fold change /veh CD79A (11719716_a_at) / RFU HIST1H1D (11736915_at) / Fold change /veh HIST1H1D (11736915_at) / RFU CASKIN2 (11723855_a_at) / Fold change /veh CASKIN2 (11723855_a_at) / RFU LOC730098 (11760151_x_at) / Fold change /veh LOC730098 (11760151_x_at) / RFU OR4N2 (11742367_at) / Fold change /veh OR4N2 (11742367_at) / RFU PRRT2 (11749266_a_at) / Fold change /veh PRRT2 (11749266_a_at) / RFU SNX32 (11753110_a_at) / Fold change /veh SNX32 (11753110_a_at) / RFU CDHR5 (11726645_a_at) / Fold change /veh CDHR5 (11726645_a_at) / RFU RCAN1 (11760418_a_at) / Fold change /veh RCAN1 (11760418_a_at) / RFU FAM167A (11723789_a_at) / Fold change /veh FAM167A (11723789_a_at) / RFU FAM26E (11764081_at) / Fold change /veh FAM26E (11764081_at) / RFU ISYNA1 (11749810_s_at) / Fold change /veh ISYNA1 (11749810_s_at) / RFU ACY1 (11761880_at) / Fold change /veh ACY1 (11761880_at) / RFU 11764098_at / Fold change /veh 11764098_at / RFU SAMD14 (11745864_x_at) / Fold change /veh SAMD14 (11745864_x_at) / RFU NPB (11741838_a_at) / Fold change /veh NPB (11741838_a_at) / RFU TMPRSS6 (11731388_a_at) / Fold change /veh TMPRSS6 (11731388_a_at) / RFU KRTAP10-2 (11738614_at) / Fold change /veh KRTAP10-2 (11738614_at) / RFU ARHGAP8 /// PRR5-ARHGAP8 (11727945_x_at) / Fold change /veh ARHGAP8 /// PRR5-ARHGAP8 (11727945_x_at) / RFU KRTAP5-7 /// NADSYN1 (11734609_at) / Fold change /veh KRTAP5-7 /// NADSYN1 (11734609_at) / RFU RASL12 (11751679_a_at) / Fold change /veh RASL12 (11751679_a_at) / RFU CDKN2B (11736163_a_at) / Fold change /veh CDKN2B (11736163_a_at) / RFU PRF1 (11729649_at) / Fold change /veh PRF1 (11729649_at) / RFU, ZNF638 /// ZNF638-IT1 / Fold change vs veh, ZNF638 /// ZNF638-IT1 / RFU, PANK3 / Fold change vs veh, PANK3 / RFU, SH3YL1 / Fold change vs veh, SH3YL1 / RFU, ZEB2 / Fold change vs veh, ZEB2 / RFU, NRIP1 / Fold change vs veh, NRIP1 / RFU, PTTG1IP / Fold change vs veh, PTTG1IP / RFU, CAPN2 / Fold change vs veh, CAPN2 / RFU, MED14 / Fold change vs veh, MED14 / RFU, SNORA58 / Fold change vs veh, SNORA58 / RFU, C1orf63 / Fold change vs veh, C1orf63 / RFU, LRRFIP1 / Fold change vs veh, LRRFIP1 / RFU, NDUFAF7 / Fold change vs veh, NDUFAF7 / RFU, SLC12A2 / Fold change vs veh, SLC12A2 / RFU, IBTK / Fold change vs veh, IBTK / RFU, ESF1 / Fold change vs veh, ESF1 / Fold change vs veh, TMEM50B / RFU, TAOK1 / Fold change vs veh, TAOK1 / RFU, ACBD3 / Fold change vs veh, ACBD3 / RFU, TMA16 / Fold change vs veh, TMA16 / RFU, RWDD3 / Fold change vs veh, RWDD3 / RFU, BCAT1 / Fold change vs veh, BCAT1 / RFU, EDEM3 / Fold change vs veh, EDEM3 / RFU, TMEM33 / Fold change vs veh, TMEM33 / RFU, WDR75 / Fold change vs veh, WDR75 / RFU, AHCTF1 / Fold change vs veh, AHCTF1 / RFU, TFRC / Fold change vs veh, TFRC / RFU, ZDHHC17 / Fold change vs veh, ZDHHC17 / RFU, NOM1 / Fold change vs veh, NOM1 / RFU, ARL8B / Fold change vs veh, ARL8B / RFU, ZBTB11 / Fold change vs veh, ZBTB11 / RFU, TAMM41 / Fold change vs veh, TAMM41 / RFU, KIAA1704 /// LOC100996395 / Fold change vs veh, KIAA1704 /// LOC100996395 / RFU, ING1 / Fold change vs veh, ING1 / RFU, TRMT61B / Fold change vs veh, TRMT61B / RFU, FUBP3 / Fold change vs veh, FUBP3 / RFU, TP53 / Fold change vs veh, TP53 / RFU, TNKS2 / Fold change vs veh, TNKS2 / RFU, ZFP14 / Fold change vs veh, ZFP14 / RFU, ACTR2 / Fold change vs veh, ACTR2 / RFU, PPP3R1 / Fold change vs veh, PPP3R1 / RFU, PIK3R1 / Fold change vs veh, PIK3R1 / RFU, HNRNPA1 / Fold change vs veh, HNRNPA1 / RFU, RNF170 / Fold change vs veh, RNF170 / RFU, ZNF28 / Fold change vs veh, ZNF28 / RFU, RNGTT / Fold change vs veh, RNGTT / RFU, OGT / Fold change vs veh, OGT / RFU, BRD1 / Fold change vs veh, BRD1 / RFU, MARS / Fold change vs veh, MARS / RFU, ZNF655 / Fold change vs veh, ZNF655 / RFU, FAHD1 / Fold change vs veh, FAHD1 / RFU, BDP1 / Fold change vs veh, BDP1 / RFU, LRRCC1 / Fold change vs veh, LRRCC1 / RFU, ARID1A / Fold change vs veh, ARID1A / RFU, ZNF146 / Fold change vs veh, ZNF146 / RFU, ZNF330 / Fold change vs veh, ZNF330 / RFU, GPN3 / Fold change vs veh, GPN3 / RFU, C9orf123 / Fold change vs veh, C9orf123 / RFU, N4BP2L2 / Fold change vs veh, N4BP2L2 / RFU, ARFIP1 / Fold change vs veh, ARFIP1 / RFU, FAM179B / Fold change vs veh, FAM179B / RFU, BCL10 / Fold change vs veh, BCL10 / RFU, UHRF1BP1L / Fold change vs veh, UHRF1BP1L / RFU, BET1 / Fold change vs veh, BET1 / RFU, CNOT2 / Fold change vs veh, CNOT2 / RFU, ZNF268 / Fold change vs veh, ZNF268 / Fold change vs veh, ZNF507 / RFU, DGCR2 / Fold change vs veh, DGCR2 / RFU, WDSUB1 / Fold change vs veh, WDSUB1 / Fold change vs veh, HSP90B1 /// MIR3652 / RFU, ADSS / Fold change vs veh, ADSS / RFU, GK / Fold change vs veh, GK / RFU, ZNF148 / Fold change vs veh, ZNF148 / RFU, TAF9 / Fold change vs veh, TAF9 / RFU, SLC1A5 / Fold change vs veh, SLC1A5 / RFU, SLMO2 / Fold change vs veh, SLMO2 / RFU, ABCC4 / Fold change vs veh, ABCC4 / RFU, LOC101060439 /// RAP1B / Fold change vs veh, LOC101060439 /// RAP1B / RFU, RFX7 / Fold change vs veh, RFX7 / RFU, GTPBP10 / Fold change vs veh, GTPBP10 / RFU, CNEP1R1 / Fold change vs veh, CNEP1R1 / RFU, BIVM-ERCC5 /// ERCC5 / Fold change vs veh, BIVM-ERCC5 /// ERCC5 / RFU, ILF3 / Fold change vs veh, ILF3 / RFU 11762660_at / Fold change /veh 11762660_at / RFU VCAN (11757783_s_at) / Fold change /veh VCAN (11757783_s_at) / RFU DDX43 (11728927_at) / Fold change /veh DDX43 (11728927_at) / RFU KRT8 (11758188_x_at) / Fold change /veh KRT8 (11758188_x_at) / RFU NKD1 (11759106_at) / Fold change /veh NKD1 (11759106_at) / RFU SRD5A1 (11742802_a_at) / Fold change /veh SRD5A1 (11742802_a_at) / RFU TPSAB1 /// TPSB2 (11721975_s_at) / Fold change /veh TPSAB1 /// TPSB2 (11721975_s_at) / RFU GSTM3 (11746129_a_at) / Fold change /veh GSTM3 (11746129_a_at) / RFU IL23R (11737362_x_at) / Fold change /veh IL23R (11737362_x_at) / RFU TMEM51 (11727254_a_at) / Fold change /veh TMEM51 (11727254_a_at) / RFU PIWIL2 (11732686_x_at) / Fold change /veh PIWIL2 (11732686_x_at) / RFU ORM1 (11744905_x_at) / Fold change /veh ORM1 (11744905_x_at) / RFU CCDC152 (11743942_at) / Fold change /veh CCDC152 (11743942_at) / RFU ECM1 (11717891_a_at) / Fold change /veh ECM1 (11717891_a_at) / RFU IL23R (11748794_a_at) / Fold change /veh IL23R (11748794_a_at) / RFU TNFAIP8L3 (11732012_x_at) / Fold change /veh TNFAIP8L3 (11732012_x_at) / RFU MBOAT4 (11741988_at) / Fold change /veh MBOAT4 (11741988_at) / RFU 11764193_at / Fold change /veh 11764193_at / RFU TMEM53 (11763286_at) / Fold change /veh TMEM53 (11763286_at) / RFU MAGEB2 (11727129_at) / Fold change /veh MAGEB2 (11727129_at) / RFU TMEM200A (11744735_a_at) / Fold change /veh TMEM200A (11744735_a_at) / RFU CCDC152 (11751479_a_at) / Fold change /veh CCDC152 (11751479_a_at) / RFU FAM211A (11726209_a_at) / Fold change /veh FAM211A (11726209_a_at) / RFU RGS16 (11746705_a_at) / Fold change /veh RGS16 (11746705_a_at) / RFU VCAN (11755009_s_at) / Fold change /veh VCAN (11755009_s_at) / RFU RHOB (11743442_s_at) / Fold change /veh RHOB (11743442_s_at) / RFU RGS16 (11720943_a_at) / Fold change /veh RGS16 (11720943_a_at) / RFU RGS16 (11720944_at) / Fold change /veh RGS16 (11720944_at) / RFU, VPS4B / Fold change vs veh, VPS4B / RFU, CREB1 / Fold change vs veh, CREB1 / RFU, DNAJC13 / Fold change vs veh, DNAJC13 / RFU, GNAQ / Fold change vs veh, GNAQ / RFU, CDK5R1 / Fold change vs veh, CDK5R1 / RFU, ZRANB3 / Fold change vs veh, ZRANB3 / RFU, CUL4A / Fold change vs veh, CUL4A / RFU, CCNY / Fold change vs veh, CCNY / RFU, UFL1 / Fold change vs veh, UFL1 / RFU, COG3 / Fold change vs veh, COG3 / RFU, DIAPH2 / Fold change vs veh, DIAPH2 / RFU, SKA2 / Fold change vs veh, SKA2 / RFU, AFF3 / Fold change vs veh, AFF3 / RFU, LMF1 / Fold change vs veh, LMF1 / RFU, IPO11 / Fold change vs veh, IPO11 / RFU, DFFB / Fold change vs veh, DFFB / RFU, FOXP1 / Fold change vs veh, FOXP1 / RFU, CARD8 / Fold change vs veh, CARD8 / RFU, STRN3 / Fold change vs veh, STRN3 / RFU, ADK / Fold change vs veh, ADK / RFU, RASSF2 / Fold change vs veh, RASSF2 / RFU, WIPF1 / Fold change vs veh, WIPF1 / RFU, LARP1B / Fold change vs veh, LARP1B / RFU, RASA1 / Fold change vs veh, RASA1 / RFU, RB1 / Fold change vs veh, RB1 / RFU, PPFIA1 / Fold change vs veh, PPFIA1 / RFU, MAT2A / Fold change vs veh, MAT2A / RFU, CCT5 / Fold change vs veh, CCT5 / RFU, WDR92 / Fold change vs veh, WDR92 / RFU, CUX1 / Fold change vs veh, CUX1 / RFU, TTC7A / Fold change vs veh, TTC7A / RFU, TMEM135 / Fold change vs veh, TMEM135 / RFU, DEPTOR / Fold change vs veh, DEPTOR / RFU, CPM / Fold change vs veh, CPM / RFU, DNAJB6 / Fold change vs veh, DNAJB6 / RFU, CACNA2D3 / Fold change vs veh, CACNA2D3 / RFU, DTX4 / Fold change vs veh, DTX4 / RFU, TFCP2 / Fold change vs veh, TFCP2 / RFU, GMCL1 /// GMCL1P1 / Fold change vs veh, GMCL1 /// GMCL1P1 / RFU, AEBP2 / Fold change vs veh, AEBP2 / RFU, SNHG1 /// SNORD22 /// SNORD25 /// SNORD26 /// SNORD27 /// SNORD28 /// SNORD29 /// SNORD31 / Fold change vs veh, SNHG1 /// SNORD22 /// SNORD25 /// SNORD26 /// SNORD27 /// SNORD28 /// SNORD29 /// SNORD31 / Fold change (Aza/veh), C12orf56 (ProbeSet 11735607_a_at) / Fold change (ACY-1035/veh), C12orf56 (ProbeSet 11735607_a_at) / Fold change (Aza/veh), FGFR1OP (ProbeSet 11751329_s_at) / Fold change (ACY-1035/veh), FGFR1OP (ProbeSet 11751329_s_at) / Fold change (Aza/veh), VPS36 (ProbeSet 11739960_a_at) / Fold change (ACY-1035/veh), VPS36 (ProbeSet 11739960_a_at) / RFU SYPL1 (11715823_x_at) / Fold change /veh SYPL1 (11715823_x_at) / RFU IGFBP7 (11715501_s_at) / Fold change /veh IGFBP7 (11715501_s_at) / RFU REEP3 (11722064_at) / Fold change /veh REEP3 (11722064_at) / RFU IGLL1 (11728026_x_at) / Fold change /veh IGLL1 (11728026_x_at): dose or concentration left out as unconfirmed
Conditions: ProbeSet 11723930_at; LIST D

Compound: Nc1ccc(-c2cccs2)cc1NC(=O)c1ccc2c(c1)cc(C1CC1)n2CCN1CCOCC1 [ACY-1035]
- RFU, CCT5: 132.28 RFU

From paper PMC5218480 (PLoS ONE, 2017)
